Reference: article PMC11280027, “Conquering the beyond Rule of Five Space with an Optimized High-Throughput Caco-2 Assay to Close Gaps in Absorption Prediction” (Pharmaceutics, 2024)

Tested on: not given
Test: not given
Conditions: human fraction absorbed; rounded to two significant figures; ref [17]; cited from earlier work

| Structure (SMILES) | Observed Human fa |
| --- | --- |
| N=C(N)NC(=O)c1nc(Cl)c(N)nc1N [Amiloride] | 0.53 |
| CC(C)CN(C[C@@H](O)[C@H](Cc1ccccc1)NC(=O)O[C@H]1CCOC1)S(=O)(=O)c1ccc(N)cc1 [Amprenavir] | 0.76 |
| Cc1cc(=O)n(-c2ccccc2)n1C [Antipyrine] | 0.98 |
| CC[C@H]1OC(=O)[C@H](C)[C@@H](O[C@H]2C[C@@](C)(OC)[C@@H](O)[C@H](C)O2)[C@H](C)[C@@H](O[C@@H]2O[C@H](C)C[C@H](N(C)C)[C@H]2O)[C@](C)(O)C[C@@H](C)CN(C)[C@H](C)[C@@H](O)[C@]1(C)O [Azithromycin] | 0.43 |
| CC(C)(C)NC(=O)N[C@H](C(=O)N1C[C@H]2[C@@H]([C@H]1C(=O)NC(CC1CCC1)C(=O)C(N)=O)C2(C)C)C(C)(C)C (stereo partly shown) [Boceprevir] | 0.92 |
| COc1ccccc1Oc1c(NS(=O)(=O)c2ccc(C(C)(C)C)cc2)nc(-c2ncccn2)nc1OCCO [Bosentan] | 0.70 |
| O=C(O)COCCN1CCN(C(c2ccccc2)c2ccc(Cl)cc2)CC1 (stereo not shown) [Cetirizine] | 0.73 |
| C[C@]12C[C@H](O)[C@H]3[C@@H](CCC4=CC(=O)CC[C@@]43C)[C@@H]1CC[C@@H]2C(=O)CO [Corticosterone] | 1.0 |
| O=C(O)Cc1ccccc1Nc1c(Cl)cccc1Cl [Diclofenac] | 0.97 |
| OCCN(CCO)c1nc(N2CCCCC2)c2nc(N(CCO)CCO)nc(N3CCCCC3)c2n1 [Dipyridamole] | 0.56 |
| CN(C)CCC=C1c2ccccc2COc2ccccc21 [Doxepin] | 0.76 |
| NS(=O)(=O)c1cc(C(=O)O)c(NCc2ccco2)cc1Cl [Furosemide] | 0.61 |
| COc1ccc2c(c1)C(=O)N(CCc1ccc(S(=O)(=O)NC(=O)NC3CCCCC3)cc1)C(=O)C2(C)C [Gliquidone] | 0.95 |
| CCN(CCO)CCCC(C)Nc1ccnc2cc(Cl)ccc12 (stereo not shown) [Hydroxychloroquine] | 0.90 |
| CC(C)(C)NC(=O)[C@@H]1CN(Cc2cccnc2)CCN1C[C@@H](O)C[C@@H](Cc1ccccc1)C(=O)N[C@H]1c2ccccc2C[C@H]1O [Indinavir] | 0.63 |
| CC(=O)N1CCN(c2ccc(OCC3COC(Cn4ccnc4)(c4ccc(Cl)cc4Cl)O3)cc2)CC1 (stereo not shown) [Ketoconazole] | 0.76 |
| Nc1nnc(-c2cccc(Cl)c2Cl)c(N)n1 [Lamotrigine] | 0.98 |
| Nc1cccc2c1CN(C1CCC(=O)NC1=O)C2=O (stereo not shown) [Lenalidomide] | 0.90 |
| CCOC(=O)N1CCC(=C2c3ccc(Cl)cc3CCc3cccnc32)CC1 [Loratadine] | 0.90 |
| CN(Cc1cnc2nc(N)nc(N)c2n1)c1ccc(C(=O)N[C@@H](CCC(=O)O)C(=O)O)cc1 [Methotrexate] | 0.64 |
| CCN(CC)CCNC(=O)c1cc(Cl)c(N)cc1OC [Metoclopramide] | 0.89 |
| Cc1cccc(C)c1OCC(C)N (stereo not shown) [Mexiletine] | 0.99 |
| O=C(NCCN1CCOCC1)c1ccc(Cl)cc1 [Moclobemide] | 0.85 |
| CNS(=O)(=O)CCc1ccc2[nH]cc(C3CCN(C)CC3)c2c1 [Naratriptan] | 0.70 |

| Structure (SMILES) | Observed Human fa |
| --- | --- |
| CN1CCC[C@H]1c1cccnc1 [Nicotine] | 1.0 |
| COCCOC(=O)C1=C(C)NC(C)=C(C(=O)OC(C)C)C1c1cccc([N+](=O)[O-])c1 (stereo not shown) [Nimodipine] | 1.0 |
| CNCCC=C1c2ccccc2CCc2ccccc21 [Nortriptyline] | 1.0 |
| Cc1nccn1CC1CCc2c(c3ccccc3n2C)C1=O (stereo not shown) [Ondansetron] | 1.0 |
| CCOC(=O)C1=C[C@@H](OC(CC)CC)[C@H](NC(C)=O)[C@@H](N)C1 [Oseltamivir] | 0.75 |
| Nc1ccc(/N=N/c2ccccc2)c(N)n1 [Phenazopyridine] | 0.90 |
| O=C1NC(=O)C(c2ccccc2)(c2ccccc2)N1 [Phenytoin] | 0.93 |
| CNC(=O)Oc1ccc2c(c1)[C@]1(C)CCN(C)[C@@H]1N2C [Physostigmine] | 0.050 |
| CNC(=C[N+](=O)[O-])NCCSCc1ccc(CN(C)C)o1 [Ranitidine] | 0.56 |
| CO[C@H]1/C=C/O[C@@]2(C)Oc3c(C)c(O)c4c(c3C2=O)C2=NC3(CCN(CC(C)C)CC3)NC2=C(NC(=O)/C(C)=C\C=C\[C@H](C)[C@H](O)[C@@H](C)[C@@H](O)[C@@H](C)[C@H](OC(C)=O)[C@@H]1C)C4=O [Rifabutin] | 0.53 |
| CN(C)CCc1c[nH]c2ccc(Cn3cncn3)cc12 [Rizatriptan] | 0.90 |
| CN(CCOc1ccc(CC2SC(=O)NC2=O)cc1)c1ccccn1 (stereo not shown) [Rosiglitazone] | 1.0 |
| CC(C)c1nc(N(C)S(C)(=O)=O)nc(-c2ccc(F)cc2)c1/C=C/[C@@H](O)C[C@@H](O)CC(=O)O [Rosuvastatin] | 0.35 |
| CC[C@H]1OC(=O)[C@H](C)[C@@H](O[C@H]2C[C@@](C)(OC)[C@@H](O)[C@H](C)O2)[C@H](C)[C@@H](O[C@@H]2O[C@H](C)C[C@H](N(C)C)[C@H]2O)[C@](C)(O)C[C@@H](C)/C(=N\OCOCCOC)[C@H](C)[C@@H](O)[C@]1(C)O [Roxithromycin] | 0.86 |
| C#CCN(C)[C@H](C)Cc1ccccc1 [Selegiline] | 1.0 |
| O=C(O)c1cc(/N=N/c2ccc(S(=O)(=O)Nc3ccccn3)cc2)ccc1O [Sulfasalazine] | 0.33 |
| CNS(=O)(=O)Cc1ccc2[nH]cc(CCN(C)C)c2c1 [Sumatriptan] | 0.58 |
| CCCc1nc2c(C)cc(-c3nc4ccccc4n3C)cc2n1Cc1ccc(-c2ccccc2C(=O)O)cc1 [Telmisartan] | 0.82 |
| O=c1n(CCCN2CCN(c3cccc(Cl)c3)CC2)nc2ccccn12 [Trazodone] | 0.98 |
| OC(CCN1CCCCC1)(c1ccccc1)C1CCCCC1 (stereo not shown) [Trihexyphenidyl] | 1.0 |
| COc1ccc(C(CN(C)C)C2(O)CCCCC2)cc1 (stereo not shown) [Venlafaxine] | 0.96 |
| O=C1Cc2cc(CCN3CCN(c4nsc5ccccc45)CC3)c(Cl)cc2N1 [Ziprasidone] | 0.63 |
| CN(C)CCc1c[nH]c2ccc(C[C@H]3COC(=O)N3)cc12 [Zolmitriptan] | 0.92 |

Tested on: not listed separately
Test: Bidirectional transport study with assay-ready Caco-2 cells, 7-day versus 21-day cultivation (Figure S2)
Conditions: human, Caco-2, pH 7.4

| Structure (SMILES) | efflux ratio at 60 min |
| --- | --- |
| CN/C(=N/CCSCc1nc[nH]c1C)NC#N [Cimetidine] | > 2 |
| COc1cc2nc(N3CCN(C(=O)c4ccco4)CC3)nc(N)c2cc1OC [Prazosin] | > 2 |
| O=C(O)c1cc(/N=N/c2ccc(S(=O)(=O)Nc3ccccn3)cc2)ccc1O [Sulfasalazine] | > 2 |

Tested on: Caco-2 cells
Test: as above
Conditions: Caco-2 cells maintained 7 days on transwell plates; ER = Papp,BA/Papp,AB

| Structure (SMILES) | efflux ratio (ER) |
| --- | --- |
| C[C@]12CC[C@@H]3c4ccc(OS(=O)(=O)O)cc4CC[C@H]3[C@@H]1CCC2=O [Compound E3S, estrone-3-sulfate] | > 2 |

Same assay, conditions: Caco-2 cells maintained 21 days on transwell plates; ER = Papp,BA/Papp,AB

| Structure (SMILES) | efflux ratio (ER) |
| --- | --- |
| CN/C(=N/CCSCc1nc[nH]c1C)NC#N [Cimetidine] | > 2 |
| C[C@]12CC[C@@H]3c4ccc(OS(=O)(=O)O)cc4CC[C@H]3[C@@H]1CCC2=O [Compound E3S, estrone-3-sulfate] | > 2 |
| COc1cc2nc(N3CCN(C(=O)c4ccco4)CC3)nc(N)c2cc1OC [Prazosin] | > 2 |
| O=C(O)c1cc(/N=N/c2ccc(S(=O)(=O)Nc3ccccn3)cc2)ccc1O [Sulfasalazine] | > 2 |
